Reference: patent publication US11161845B2, “Pyrrolopyridine-aniline compounds for treatment of dermal disorders” (Nflection Therapeutics, Inc., priority 2017, dated 2021)

What was measured:
[1] = system: A375 cells; assay: A375 (BRAF) GI50 cell-based assay (Cell Titer-Glo); settings: Homo sapiens, A-375; 72 hours; read-out: Assay 2: A375 (BRAF) GI50
Experimental: (§1) Alternatively, the following procedure can be used to measure cell-based activity. Test compounds were dissolved in DMSO in 10 mM stock. Cell Titer-Glo® 2.0 Luminescent cell viability assay reagent was purchased from Promega (Madison, Wis.). A375 and HCT116 cell lines were purchased from American Type Culture Collection (Manassas, Va.). For A375 cells, cell culture media was DMEM+10% FBS. For HCT116 cells, cell culture media was McCoy's 5A+10% FBS. All media were supplemented with 100 μg/mL of penicillin, and 100 μg/mL of streptomycin. Cultures were maintained at 37° C. in a humidified atmosphere of 5% CO2 and 95% air.
(§2) Test compounds were diluted in DMSO solution with 10-dose and 3-fold dilutions in a source plate starting at 10 mM. 25 nL of each test compound was delivered from the source plate to each well of the 384-well cell culture plates (T=Final) by Echo 550. 25 μL of culture medium containing 2000 of A375 or HCT116 cells was added to each of the wells in duplicates of the cell culture plates (T=0 and T=Final). 25 μL of Cell Titer Glo 2.0 reagent was added to each well of cell culture plate (T=0). The contents were mixed on an orbital shaker for 2 min and incubated at room temperature for 15 min to stabilize luminescent signal. Luminescence was recorded by Envision 2104 Multilabel Reader (PerkinElmer, Santa Clara, Calif.). The number of viable cells in culture was determined based on quantitation of the ATP present in each culture well. The cells in cell culture plate (T=Final) were incubated with the compounds at 37° C., 5% CO2 for 72 hours. 25 μL of Cell Titer Glo 2.0 reagent was added to each well. The contents were mixed on an orbital shaker for 2 min and incubated at room temperature for 15 min to stabilize luminescent signal. Luminescence was recorded by Envision 2104 Multilabel Reader (PerkinElmer, Santa Clara, Calif.). The number of viable cells in culture was determined based on quantitation of the ATP present in each culture well. The G150 curves were plotted using the GraphPad Prism 4 program based on a sigmoidal dose-response equation Y=Bottom+(Top−Bottom)/(1+10^((Log EC50−X)*HillSlope)). All parameters in the equation were calculated by GraphPad Prism 4 program. […] Accordingly, GI50 is the value of 10^X, where X was calculated by the Curve Fitting Equation when Y=50 using Excel.

[2] = system: HCT116 cells; assay: HCT116 (Kras) GI50 cell-based assay (Cell Titer-Glo); settings: Homo sapiens, HCT-116; 72 hours; read-out: Assay 3: HCT116 (Kras) GI50
Experimental: as §1, §2

[3] = S9 stability assay, human liver S9 fraction; assay type: in vitro ADME
Method in brief: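 Incubation at 37 °C of 1 μM compound with 2 mg/mL human liver S9 protein and 1 mM NADPH in 100 mM potassium phosphate pH 7.4 (1 mM EDTA, 3 mM MgCl2), sampled at 0, 15, 30, 60 min. Parent loss by LC/MS/MS gave t1/2 and CLint = 0.693/t1/2 × mL incubation/mg S9 protein.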

[4] = Plasma LCMS compound levels, in vivo mouse model; set-up: species or system mice; settings: for concentration at 1 h / concentration at 2 h: male, C57BL/6J, mouse, plasma; for concentration at 1 h: 1 h after final application; for concentration at 2 h: 2 h after final application; for Plasma LCMS Compound Levels: pre-dose (16 h)
Experimental: These mice were also shaved weekly.
Week 4 (Experiment end): Skin and blood were collected right before the last morning dose (N=3), 1 hour (N=3 mice), and 2 hours (N=3 mice) after final application; Blood draw: Plasma compound levels (LCMS); Skin biopsy: formalin fixed for histology and p-ERK staining, flash frozen for Western analysis and skin compound levels (LCMS)
Compound level analysis: Liquid chromatography with mass spectrometry method (LCMS) was used to detect compound levels in the skin and plasma. Tissues were preprocessed prior to LCMS as follows. Tissues were minced and incubated with collagenase and then finally homogenized using the stainless steel beads prior to LCMS analysis. Calibration curves and a QC test were run with each assay.

With `Cn1c(Nc2ccc(I)cc2F)c(C(=O)NOCCO)c2cccnc21` [Example 2, 2-((2-Fluoro-4-iodophenyl)amino)—N-(2-hydroxyethoxy)-1-methyl-1H-pyrrolo[2,3-b]pyridine-3-carboxamide] the GI50 [1] was 63 nM, the GI50 [2] was 196 nM and the “Assay 5: human liver S9 instrinsic clearance value” ([3]; Table 2, 1 μM, 2 mg/mL S9 protein, NADPH) was 21.45 μL/min/mg protein. For the same compound, the microsomal CLint at 1 μM ([3]; pH 7.4, Table 1, human liver S9 fraction, read-out: CLint) was 21.4 µL/min/mg, the half-life at 1 μM ([3]; pH 7.4, Table 1, human liver S9 fraction, read-out: Liver S9 t1/2) was 16 min and the concentration at 1 h ([4]; topical 0.1%) was 174 ng/mL. For the same compound, the concentration at 2 h ([4]; topical 0.1%) was 37.9 ng/mL, the concentration at 1 h ([4]; topical 0.5%) was 1040 ng/mL and the concentration at 2 h ([4]; topical 0.5%) was 102 ng/mL. The concentration at 1 h ([4]; topical 1%) was 1020 ng/mL, the concentration at 2 h ([4]; topical 1%) was 262 ng/mL and the “Plasma LCMS Compound Levels” value ([4]; topical 0.1%) was 1.18 ng/mL. The “Plasma LCMS Compound Levels” value ([4]; topical 0.5%) was 4.78 ng/mL and the “Plasma LCMS Compound Levels” value ([4]; topical 1%) was 24.98 ng/mL.
